pIC50: −log10 of the molar value.
Target: T1, hNCC(N227A) (Homo sapiens, UniProt P55017, N227A)
T1 construct: expressed in transfected cells
T1 sequence (P55017 1-1021 N227A): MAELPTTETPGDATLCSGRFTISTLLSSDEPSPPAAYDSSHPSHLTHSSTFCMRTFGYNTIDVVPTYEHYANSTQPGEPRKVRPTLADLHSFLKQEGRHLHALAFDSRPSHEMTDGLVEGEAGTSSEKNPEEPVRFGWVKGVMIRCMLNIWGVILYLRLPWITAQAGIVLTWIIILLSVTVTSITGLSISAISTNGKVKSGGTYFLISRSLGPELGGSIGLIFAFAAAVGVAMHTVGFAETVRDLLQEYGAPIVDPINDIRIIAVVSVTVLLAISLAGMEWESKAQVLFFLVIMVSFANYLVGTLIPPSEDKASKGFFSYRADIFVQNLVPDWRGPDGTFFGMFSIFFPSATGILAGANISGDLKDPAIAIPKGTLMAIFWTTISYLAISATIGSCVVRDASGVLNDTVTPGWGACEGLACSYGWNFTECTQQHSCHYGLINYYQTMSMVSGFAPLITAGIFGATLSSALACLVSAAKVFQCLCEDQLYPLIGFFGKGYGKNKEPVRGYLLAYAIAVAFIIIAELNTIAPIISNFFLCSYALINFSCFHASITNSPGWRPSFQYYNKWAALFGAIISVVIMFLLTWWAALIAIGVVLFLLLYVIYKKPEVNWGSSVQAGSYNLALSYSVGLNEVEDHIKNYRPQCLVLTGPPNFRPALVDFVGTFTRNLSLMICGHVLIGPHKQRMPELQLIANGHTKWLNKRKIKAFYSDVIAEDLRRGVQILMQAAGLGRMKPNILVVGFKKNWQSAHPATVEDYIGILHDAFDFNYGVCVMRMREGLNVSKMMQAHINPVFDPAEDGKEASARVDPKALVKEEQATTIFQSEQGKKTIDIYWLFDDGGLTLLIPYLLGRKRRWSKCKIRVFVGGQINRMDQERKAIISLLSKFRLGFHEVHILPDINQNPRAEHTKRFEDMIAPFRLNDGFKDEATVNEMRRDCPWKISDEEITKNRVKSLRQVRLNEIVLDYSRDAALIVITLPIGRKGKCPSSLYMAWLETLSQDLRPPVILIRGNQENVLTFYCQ
Experiment: 125I- uptake assay, hNCC(N227A) variant
Format: cell-based
Details: for increase in IC50 relative to hNCC(WT) / pIC50: N227A substitution; for pIC50: iodide uptake
Experimental: HEK293S cell lines, cultured in 293 Freestyle medium (Life Technologies; plus 10% fetal bovine serum), stably expressing hNCC and its variants were generated following published protocols. Cells were transfected using Lipofectamine 3000 (Invitrogen) with a pSBbi-RP-based plasmid containing hNCC or its variants and the SB100X vector. Puromycin (2 μg/mL; Gemini Bio-Products) was used for selection of stable cell lines.
To prepare for the uptake experiment, cells were plated at 0.5 × 10^6 cells/well in 24-well plates one day in advance. To activate NCC, cells were treated with a chloride-free hypotonic solution composed of 67.5 mM sodium-, 2.5 mM potassium-, 0.25 mM magnesium-, and 0.25 mM calcium-gluconate, as well as 7.5 mM HEPES pH 7.4 (buffered using Tris) at 37 °C for 10 min[72]. After the activation step, the experiments were carried out at room temperature. Ten minutes before the start of ^125I^− uptake, 70 μM Bumetanide (Thermo Scientific Chemicals) and 100 μM 4,4′-diisothiocyanatostilbene-2,2′-disulfonic acid (DIDS; Sigma) were added to suppress background iodide uptake activity. Indicated thiazide diuretics were also added to the indicated concentrations 10 min before the start of ^125I^− uptake. The original buffer was switched to an uptake buffer composed of 135 mM Na-gluconate, 5 mM K-gluconate, 1 mM Mg-gluconate, 1 mM Ca-gluconate, 70 μM bumetanide, 100 μM DIDS, 1 mM NaI, 0.25 μCi/ml Na^125I (American Radiolabeled Chemicals, Inc.), and 15 mM HEPES pH 7.4 (buffered using Tris), in the presence or absence of thiazide diuretics to initiate ^125I^− uptake. The ^125I^− uptake process lasted 1 h and was stopped by two rapid washes using ice-cold 110 mM MgCl2. Cells lysed using 1% sodium dodecyl sulfate (SDS) were analyzed by scintillation counting.
To calculate the fold change of the half-maximal inhibitory concentration (IC50) between hNCC(WT) and different hNCC variants, individual dose-response curves were normalized first using the smallest mean and the value of the lowest concentration as 0% and 100%, respectively. The normalized data were then fitted using the “EC50 shift” nonlinear regression in GraphPad Prism 10 with the shared EC50Control assigned to be the IC50 of hNCC(WT). The following constraints were used in the EC50 shift analysis. The EC50Control was set to be shared across all curves under analysis and constrained to be greater than 0. The EC50Ratio was constrained to be greater than 0. The bottom, top, and HillSlope were constrained to be 0, 100, and −1, respectively. For Fig. 1f, g and Supplementary Fig. 2d, GraphPad Prism 10 was used to perform curve fitting and IC50 calculation for normalized data using y = 100/(1 + (x/IC50)).

| SMILES | increase in IC50 relative to hNCC(WT) | pIC50 | effect of N227A substitution on potency relative to its effect on polythiazide (N227A, polythiazide sensitivities from ref 36) |
| --- | --- | --- | --- |
| NS(=O)(=O)c1cc(C2(O)NC(=O)c3ccccc32)ccc1Cl (centres unmarked) [chlorthalidone] | > 1000 fold | 4.23 |  |
| CC1Cc2ccccc2N1NC(=O)c1ccc(Cl)c(S(N)(=O)=O)c1 (centres unmarked) [indapamide] | over 10,000 fold | 3.21 | over 50 fold |
